Assay results published in patent US20250145637A1, “SULFONAMIDE DERIVATIVE, PREPARATION METHOD THEREFOR AND MEDICAL USE THEREOF” (Jiangsu Hengrui Pharmaceuticals Co. Ltd., priority 2021, published 2025).

The molecules below were run against human KAT6A (Homo sapiens (Human), UniProt Q92794) (assay: KAT6 enzyme activity assay (AlphaScreen method), KAT6A). Settings: inhibition of the enzyme human KAT6A.
human KAT6A, sequence (Q92794 whole entry): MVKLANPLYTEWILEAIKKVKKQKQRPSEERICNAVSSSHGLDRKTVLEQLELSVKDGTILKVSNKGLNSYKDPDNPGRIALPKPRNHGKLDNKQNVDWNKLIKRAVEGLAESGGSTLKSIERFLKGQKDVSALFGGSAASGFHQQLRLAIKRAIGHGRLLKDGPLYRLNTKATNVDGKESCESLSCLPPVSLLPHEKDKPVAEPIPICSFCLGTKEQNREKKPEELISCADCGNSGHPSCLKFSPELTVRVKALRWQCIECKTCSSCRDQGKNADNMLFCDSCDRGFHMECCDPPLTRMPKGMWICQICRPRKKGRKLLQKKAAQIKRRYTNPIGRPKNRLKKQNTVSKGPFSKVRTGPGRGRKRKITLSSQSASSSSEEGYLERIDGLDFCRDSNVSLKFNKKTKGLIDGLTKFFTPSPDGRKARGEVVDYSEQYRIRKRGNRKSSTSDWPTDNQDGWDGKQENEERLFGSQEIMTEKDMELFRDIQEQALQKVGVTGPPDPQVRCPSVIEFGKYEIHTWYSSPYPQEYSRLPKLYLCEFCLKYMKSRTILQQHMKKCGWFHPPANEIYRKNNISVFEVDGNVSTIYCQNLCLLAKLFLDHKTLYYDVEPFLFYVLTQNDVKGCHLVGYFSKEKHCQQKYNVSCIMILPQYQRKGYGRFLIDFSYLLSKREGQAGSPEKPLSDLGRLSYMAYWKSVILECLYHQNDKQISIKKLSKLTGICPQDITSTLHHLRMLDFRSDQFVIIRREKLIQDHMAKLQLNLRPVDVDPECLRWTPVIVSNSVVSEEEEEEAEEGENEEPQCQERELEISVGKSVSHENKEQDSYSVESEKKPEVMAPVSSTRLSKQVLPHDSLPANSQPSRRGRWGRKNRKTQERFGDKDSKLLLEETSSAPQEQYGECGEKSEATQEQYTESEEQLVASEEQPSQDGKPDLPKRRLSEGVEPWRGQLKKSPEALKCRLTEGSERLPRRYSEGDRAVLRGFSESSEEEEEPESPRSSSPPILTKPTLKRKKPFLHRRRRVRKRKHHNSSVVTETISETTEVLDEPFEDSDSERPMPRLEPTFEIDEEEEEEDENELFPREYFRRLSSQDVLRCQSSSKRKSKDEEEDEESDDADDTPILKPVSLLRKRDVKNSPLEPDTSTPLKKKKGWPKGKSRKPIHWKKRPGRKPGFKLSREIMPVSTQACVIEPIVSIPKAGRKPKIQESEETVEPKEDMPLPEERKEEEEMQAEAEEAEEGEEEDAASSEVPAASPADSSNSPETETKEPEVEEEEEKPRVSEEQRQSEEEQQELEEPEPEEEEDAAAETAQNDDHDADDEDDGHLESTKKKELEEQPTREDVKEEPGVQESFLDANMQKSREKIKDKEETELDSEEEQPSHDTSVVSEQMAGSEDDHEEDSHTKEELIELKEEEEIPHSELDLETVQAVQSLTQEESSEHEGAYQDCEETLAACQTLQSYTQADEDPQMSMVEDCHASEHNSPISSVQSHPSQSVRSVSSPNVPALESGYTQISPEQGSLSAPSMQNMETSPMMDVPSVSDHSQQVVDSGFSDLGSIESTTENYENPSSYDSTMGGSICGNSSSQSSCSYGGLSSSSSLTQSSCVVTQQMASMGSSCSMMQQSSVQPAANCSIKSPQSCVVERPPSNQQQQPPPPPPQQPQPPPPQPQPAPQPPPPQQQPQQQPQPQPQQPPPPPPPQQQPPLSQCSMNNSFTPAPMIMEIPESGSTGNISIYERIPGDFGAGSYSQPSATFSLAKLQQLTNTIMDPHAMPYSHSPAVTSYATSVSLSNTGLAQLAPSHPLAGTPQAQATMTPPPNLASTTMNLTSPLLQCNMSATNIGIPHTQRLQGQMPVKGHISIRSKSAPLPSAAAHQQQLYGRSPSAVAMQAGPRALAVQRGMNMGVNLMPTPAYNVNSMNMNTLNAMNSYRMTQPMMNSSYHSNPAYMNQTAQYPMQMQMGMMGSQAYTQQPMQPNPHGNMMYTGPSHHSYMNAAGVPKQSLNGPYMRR
Assay type: biochemical
Text: Test Example 1: KAT6 Enzyme Activity Assay (AlphaScreen Method)
I. Reagents and instrument • 1. KAT6A (customized by Chempartner) • 2. Ovalbumin (Sigma-Aldrich, A5378-5G) • 3. 2 M Tris-HCl solution, pH 7.8, sterile (Sangon, B548140-0500) • 4. 5 M NaCl solution (Sangon, B548121-0100) • 5. EDTA (0.5 M), pH 8.0, RNase-free (Thermofisher, AM9260G) • 6. Tween-20 (Sangon, A100777-0500) • 7. DTT, 1 M (Invitrogen, P2325) • 8. Acetyl coenzyme A (Ac-CoA, CAYMAN, Cat. No. 16160) • 9. Recombinant histone H3.1 biotinylated (human) (Active Motif 31696) • 10. 384-well plate, light gray (Perkin Elmer, Cat. No. 6005350) • 11. Anacardic acid (MCE, Cat. No. HY—N2020) • 12. AlphaScreen streptavidin donor beads, 5 mg (PerkinElmer, 6760002) • 13. AlphaScreen protein A acceptor beads, 5 mg (PerkinElmer, 6760137M) • 14. Acetylated-lysine antibody #9441 (CST 9441S) • 15. PHERA star microplate reader (BMG labtech) • II. Experimental method
a. 1× assay buffer: 100 mM Tris-HCl, pH 7.8; 15 mM NaCl; 1 mM EDTA; 0.01% tween-20; 1 mM DTT; 0.01% m/v ovalbumin.
b. KAT enzyme solution: 1.25 nM (final concentration), prepared in 1× assay buffer.
c. Mixed substrate of Ac-CoA and H3: a mixed substrate of 1000 nM (final concentration) Ac-CoA and 55 nM (final concentration) H3, prepared in 1× assay buffer.
d. Compounds: initial concentration of 100 μM, 3-fold dilution, 10 gradient concentrations. All compound concentrations were diluted 83-fold with 1× assay buffer for later use.
e. Assay reagent: 8 ng/μL (final concentration) AlphaScreen protein A acceptor beads, 8 ng/μL AlphaScreen streptavidin donor beads, 1:1500 diluted acetylated-lysine antibody, and 100 μM anacardic acid; prepared in 1× assay buffer.
2. Experimental Procedure
a. The prepared enzyme solution was added to a 384-well plate at 3 μL/well, and 3 μL of 1× assay buffer was added to each well in columns 23 and 24 (Min).
b. 3 μL of compound solution was added to each well, and 3 μL of buffer was added to each Min well; 3 μL of DMSO solution was added to each well in columns 1 and 2 (Max) as controls. The plate was centrifuged, shaken for 2 min, and incubated at room temperature for 15 min.
c. The mixed substrate of Ac-CoA and H3 was added at 6 μL/well, and the plate was centrifuged, shaken for 2 min, and incubated at room temperature for 20 min.
d. The assay reagent was added at 6 μL/well, and the plate was centrifuged, shaken for 2 min, and incubated in the dark at room temperature for 120 min.
e. Plate reading was performed on the microplate reader, and AlphaScreen counts were recorded.
f. Plotting was performed using the Graphpad software, and the IC50 values of the compounds were calculated.
An IC50 of 0.6 nM was found for COc1cccc(OC)c1S(=O)(=O)Nc1noc2cc(Cn3cccn3)c3c(c12)OCC3 [Compound 1, N-(4-((1H-pyrazol-1-yl)methyl)-2,3-dihydrobenzofuro[7,6-d]isoxazol-8-yl)-2,6-dimethoxybenzenesulfonamide] in this work. An IC50 of 0.5 nM was found for COc1ccccc1S(=O)(=O)Nc1noc2cc(Cn3cccn3)c3c(c12)OCCC3 [Compound 3, N-(5-((1H-pyrazol-1-yl)methyl)-3,4-dihydro-2H-chromeno[8,7-d]isoxazol-9-yl)-2-methoxybenzenesulfonamide] in this work. An IC50 of 1 nM was found for COc1cccc(OC)c1S(=O)(=O)Nc1noc2cc(Cn3cccn3)c3c(c12)OC(F)(F)O3 [Compound 5, N-(4-((1H-pyrazol-1-yl)methyl)-2,2-difluoro-[1,3]dioxolo[4′,5′:5,6]benzo[1,2-d]isoxazol-8-yl)-2,6-dimethoxybenzenesulfonamide] in this work. An IC50 of 0.5 nM was found for CCOc1cc(C)ccc1S(=O)(=O)Nc1noc2cc(Cn3cccn3)c3c(c12)OCCC3 [Compound 7, N-(5-((1H-pyrazol-1-yl)methyl)-3,4-dihydro-2H-chromeno[8,7-d]isoxazol-9-yl)-2-ethoxy-4-methylbenzenesulfonamide] in this work. An IC50 of 0.7 nM was found for Cc1ccc(S(=O)(=O)Nc2noc3cc(Cn4cccn4)c4c(c23)OCCC4)c(OCC(F)(F)F)c1 [Compound 8, N-(5-((1H-pyrazol-1-yl)methyl)-3,4-dihydro-2H-chromeno[8,7-d]isoxazol-9-yl)-4-methyl-2-(2,2,2-trifluoroethoxy)benzenesulfonamide] in this work. An IC50 of 0.7 nM was found for COc1ccc(F)cc1S(=O)(=O)Nc1noc2cc(Cn3cccn3)c3c(c12)OCCC3 [Compound 9, N-(5-((1H-pyrazol-1-yl)methyl)-3,4-dihydro-2H-chromeno[8,7-d]isoxazol-9-yl)-5-fluoro-2-methoxybenzenesulfonamide] in this work. An IC50 of 0.9 nM was found for COc1cccc(OC(F)(F)F)c1S(=O)(=O)Nc1noc2cc(Cn3cccn3)c3c(c12)OCCC3 [Compound 10, N-(5-((1H-pyrazol-1-yl)methyl)-3,4-dihydro-2H-chromeno[8,7-d]isoxazol-9-yl)-2-methoxy-6-(trifluoromethoxy)benzenesulfonamide] in this work. An IC50 of 2.9 nM was found for COc1ccccc1S(=O)(=O)Nc1noc2cc(Cn3cccn3)c3c(c12)OCC3 [Compound 20, N-(4-((1H-pyrazol-1-yl)methyl)-2,3-dihydrobenzofuro[7,6-d]isoxazol-8-yl)-2-methoxybenzenesulfonamide] in this work. An IC50 of 4.8 nM was found for COc1cccc(OC(F)(F)F)c1S(=O)(=O)Nc1noc2cc(Cn3cccn3)c3c(c12)OCC3 [Compound 23, N-(4-((1H-pyrazol-1-yl)methyl)-2,3-dihydrobenzofuro[7,6-d]isoxazol-8-yl)-2-methoxy-6-(trifluoromethoxy)benzenesulfonamide] in this work.
